Assays:
PAF receptor = biological target: T1, PAF receptor (Oryctolagus cuniculus, UniProt G1TEI7); assay: [3H]PAF receptor binding assay using rabbit washed platelets
T1 construct: from tissue; host or cells: rabbit washed platelets (intact)
Description: [^3H]PAF receptor binding assay is prepared using rabbit washed platelets. […] The reaction mixture was incubated at 4° C. for 2 hrs and then 5 mL of BSA-containing saline solution was added to terminate the reactions. The free and bound ligands were separated by filtration using a Whtman GF/C glass fiber filters which were presoaked with ice-cold water. The filters were rapidly washed with the same solution and then dried and placed into vials containing 10 mL of the scintillation fluid. Radioactivity was measured in a liquid scintillation counter (Beckman LS3801). The difference between the total radioactivity of bound [^3H]PAF in the absence and in the presence of excess unlabeled PAF is defined as specific binding of the radio-labeled ligand. In a batch of experiments, [^3H]PAF was incubated with different concentrations of PAF receptor antagonists, and the effect of the antagonist on the specific binding was expressed as percentage inhibition of the control.
Percent inhibition (%)=[100−(B/A×100)](%)
wherein A represents percent aggregation in control added and B represents percent aggregation in compound added.

[1] = test system: PAF-induced platelet aggregation; assay: PAF-induced platelet aggregation in rabbit washed platelets; type: cell-based; settings: PAF 5 nM, read-out: IC50, inhibition of platelet aggregation induced by PAF
Description: Blood samples were collected from the marginal ear artery of New Zealand white rabbits. The blood was then treated to obtained platelet-rich plasma (PRP) mixed with EDTA. The platelet pellet was obtained from the EDTA-anticoagulated PRP by centrifugation. The pellet was then suspended in Tyrode solution and incubated. Platelet numbers were then counted.
The platelet suspension was stirred with solvent of test compound in solvent of different concentrations. Aggregation inducer PAF was then added to trigger the aggregation. Aggregation was determined by the transmission method using a platelet aggregation chromogenic kinetic system. The initial transmittance of the Ca^2+-containing Tyrode solution was taken as 0% aggregation and that of the platelet suspension as 100% aggregation. […] Percent inhibition by a compound was calculated.
Platelet suspension was prepared as follows. […]
Platelet aggregation was measured turbidimetrically with a light-transmission Platelet Aggregation Chromogenic Kinetic System PACK4 (Helena Laboratories, Beaumont, Tex., USA) with some modifications. […] The absorbance of the Tyrode's solution was taken as 0% aggregation and that of the platelet suspension as 100% aggregation. The extent of platelet aggregation was measured as the maximal increase of light transmission within 4 min after addition of the inducers. […]

[2] = test system: AA-induced platelet aggregation; assay: AA-induced platelet aggregation in rabbit washed platelets; type: cell-based; settings: AA 100 μM
Description: Platelet suspension was prepared as follows. Blood was collected from the marginal ear vein of New Zealand White rabbits. The blood was then anticoagulated with acid citrate dextrose (ACD, 1:6, v/v) and centrifuged for 8 min at 1000×g at room temperature. The upper portion was collected as platelet-rich plasma (PRP) and mixed with EDTA to a final concentration of 5 mM. The platelet pellets were obtained from EDTA-mixed PRP by centrifugation for 12 min at 2000×g. The platelet pellets were suspended with Ca^2+-free Tyrode's solution, and then incubated with apyrase (1 unit mL^−1) for 15 min at 37° C. […] The concentration of platelets was adjusted to 2.5×10^8 platelets mL^−1.
Platelet aggregation was measured turbidimetrically with a light-transmission Platelet Aggregation Chromogenic Kinetic System PACK4 (Helena Laboratories, Beaumont, Tex., USA) with some modifications. […] Aggregation was induced with PAF (5 nM) and AA (100 μM). The absorbance of the Tyrode's solution was taken as 0% aggregation and that of the platelet suspension as 100% aggregation. The extent of platelet aggregation was measured as the maximal increase of light transmission within 4 min after addition of the inducers. When isopropanol was used as the solvent the final concentration was fixed at 0.5% (v/v) to eliminate the effect of the solvent. All glassware was siliconized.

PGE2 formation = assay: Prostaglandin E2 formation induced by AA in rabbit washed platelets (EIA); type: cell-based; settings: AA 100 μM
Description: (§1) After challenging platelets with AA (100 μM) for 6 min, 1 mM EDTA and 20 μM indomethacin were added to terminate the reaction. By centrifugation for 5 min at 4° C. and 10,000×g, the TXB2 and PGE2 in the supernatants were assayed using EIA kits according to the procedure described by the manufacturer.

TXB2 formation = assay: Thromboxane B2 formation induced by AA in rabbit washed platelets (EIA); type: cell-based; settings: AA 100 μM, 6 min
Description: as §1

rabbit platelets = assay: Cytotoxicity assay in rabbit platelets; type: cell-based; settings: 12.5-50 μM, 30 min treatment, data not shown
[3] = test system: PAF-induced intracellular Ca2+ release; assay: PAF-induced intracellular Ca2+ release in fluo-3-loaded platelets; type: cell-based, rabbit; settings: PAF 5 nM, 2.5-50 μM, read-out: IC50, inhibition of PAF-induced intracellular Ca2+ release
Description: Platelets pelleted from PRP were resuspended in Ca^2+-free Tyrode's solution, and then incubated with fluo-3/AM (2 μM) at 37° C. for 30 min. In order to prevent leakage of dye, probenecid (2.5 mM) was added to the buffers throughout the experiments. After washing, the fluo-3-loaded platelets were finally suspended in Ca^2+-free Tyrode's solution without heparin at a concentration of 1.3×10^8 platelets mL^−1. The fluo-3-loaded platelets were preincubated with α-bulnesene in the presence of extracellular calcium (1 mM) at 37° C. for 2 min prior to addition of PAF. Fluorescence (Ex 505 nm, Em 530 nm) was measured with a fluorescence spectrophotometer (Model F4500; Hitachi, Tokyo, Japan). At the end of the experiment, the cells were treated with digitonin (20%) followed by the addition of EGTA (50 mM) to obtain the maximal and minimal fluorescence, respectively. [Ca^2+]i was calculated as described for fluo-3/AM using the Ca^2+-dye dissociation constant 864 nM.

T1 sequence (G1TEI7 1-342): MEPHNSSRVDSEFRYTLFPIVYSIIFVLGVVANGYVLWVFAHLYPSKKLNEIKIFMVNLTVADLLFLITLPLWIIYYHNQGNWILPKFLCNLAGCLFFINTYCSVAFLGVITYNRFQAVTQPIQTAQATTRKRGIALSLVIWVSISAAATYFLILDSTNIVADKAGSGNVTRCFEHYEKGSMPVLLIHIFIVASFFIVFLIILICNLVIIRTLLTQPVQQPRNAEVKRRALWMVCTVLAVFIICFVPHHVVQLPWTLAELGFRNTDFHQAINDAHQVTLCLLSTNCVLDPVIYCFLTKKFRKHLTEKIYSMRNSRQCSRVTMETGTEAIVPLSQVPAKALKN

For `CCCCCCCCCCCCCCCCCCNC(=O)OCC(COP(=O)([O-])OCC[n+]1ccsc1)OC` (centres unmarked) [CV-3988], the “percent inhibition for [3H]PAF binding” value (PAF receptor; 10 μM, n=3) was 10.10±1.74%, the IC50 [1] was 2.4 ± 1.01 µM and the “inhibition on AA-induced platelet aggregation” value [2] was “no inhibition”.
`COc1ccc2c(c1)c(CC(=O)O)c(C)n2C(=O)c1ccc(Cl)cc1` [Indomethacin, indomethacin] was tested, and the “PGE2 formation in the presence of AA” value (PGE2 formation; indomethacin, concentration not restated (1 μM as positive control)) was “inhibited” and the inhibition at 1 µM (TXB2 formation; Oryctolagus cuniculus, Platelet, 0.1 h, 1 μM, read-out: percent inhibition of TXB2 formation) was 98.05 ± 0.16%.
`O=C(O)c1cc2cc(Cc3cccnc3)ccc2o1` [furegrelate] was tested, and the “PGE2 formation in the presence of AA” value (PGE2 formation; 300 μM) was “reversely enhanced” and the inhibition at 300 µM (TXB2 formation; Oryctolagus cuniculus, Platelet, 0.1 h, 300 μM, read-out: percent inhibition of TXB2 formation) was 96.49 ± 0.78%.
In the case of `C=C(C)C1CCC(C)=C2CCC(C)C2C1` (stereo not drawn) [α-bulnesene, 1β,4-dimethyl-7β-isopropenyl-1,2,3,5,6,7,8,8aα-octahydroazulene], the IC50 (PAF receptor; 0.2 nM [3H]PAF, 4° C., 2 hrs) is reported as 17.6 ± 5.68 µM, the “PGE2 formation in the presence of AA” value (PGE2 formation; 25-100 μM, 6 min) is reported as “inhibited” and the IC50 [1] is reported as 24.5 ± 2.45 µM. The “toxicity in rabbit platelets” value (rabbit platelets) was “did not have any toxicity”, the IC50 [3] was 19.6 ± 1.32 µM and the IC50 ([2]; read-out: IC50, inhibition of platelet aggregation induced by AA) was 42.5 ± 5.97 µM. For the same compound, the “TXB2 formation stimulated by AA” value (TXB2 formation; 25-100 μM) was “inhibited”.

Reference: patent US20070088090A1, “Alpha-bulnesene, its preparation and its use” (Yangsen Biotechnology Co., Ltd., priority 2005, published 2007)
